From PubChem BioAssay AID1259407 (Chemical Carcinogenesis Research Information System (CCRIS), 2018)
Active and inactive are the calls of the source. The rule behind the calls is not given here.

System: CCRIS mutagenicity, Ames/micronucleus/aberration tests
Assay: CCRIS mutagenicity studies
[1] = Test System: AMES SALMONELLA TYPHIMURIUM, Strain/Indicator: TA98, Metabolic Activation: NONE, Method: STANDARD PLATE
[2] = Test System: AMES SALMONELLA TYPHIMURIUM, Strain/Indicator: TA98, Metabolic Activation: RAT, LIVER, S-9, AROCLOR 1254, Method: STANDARD PLATE
[3] = Test System: AMES SALMONELLA TYPHIMURIUM, Strain/Indicator: TA100, Metabolic Activation: NONE, Method: STANDARD PLATE
[4] = Test System: AMES SALMONELLA TYPHIMURIUM, Strain/Indicator: TA100, Metabolic Activation: RAT, LIVER, S-9, AROCLOR 1254, Method: STANDARD PLATE
[5] = Test System: AMES SALMONELLA TYPHIMURIUM, Strain/Indicator: TA1535, Metabolic Activation: NONE, Method: PREINCUBATION
[6] = Test System: AMES SALMONELLA TYPHIMURIUM, Strain/Indicator: TA100, Metabolic Activation: NONE, Method: PREINCUBATION
[7] = Test System: AMES SALMONELLA TYPHIMURIUM, Strain/Indicator: TA98, Metabolic Activation: NONE, Method: PREINCUBATION

SMILES: NC(=O)CCC(=O)Nc1ccc(Cl)c(Cl)c1
- mutagenic call [1]: inactive; negative
- mutagenic call [2]: inactive; negative
- mutagenic call [3]: inactive; negative
- mutagenic call [4]: inactive; negative

SMILES: O=[N+]([O-])c1ccc2c3cccc4cccc(c5c([N+](=O)[O-])ccc1c25)c43
- mutagenic call (Test System: AMES SALMONELLA TYPHIMURIUM, Strain/Indicator: TA98(1,8-DNP6), Metabolic Activation: NONE, Method: STANDARD PLATE): active; positive
- mutagenic call (Test System: AMES SALMONELLA TYPHIMURIUM, Strain/Indicator: TA98(NR), Metabolic Activation: NONE, Method: STANDARD PLATE): active; positive
- mutagenic call [1]: active; positive
- mutagenic call (Test System: AMES SALMONELLA TYPHIMURIUM, Strain/Indicator: TA98, Metabolic Activation: NONE, Method: STANDARD PLATE (ANAEROBIC)): active; positive
- mutagenic call [2]: active; positive
- mutagenic call [3]: inactive; negative
- mutagenic call [4]: active; positive

SMILES: CCCCN(CCCC(=O)O)N=O
- mutagenic call (End Point: IN VITRO MICRONUCLEUS, Test System: CHL/IU CELLS, Metabolic Activation: NONE): active; positive
- mutagenic call (Test System: AMES SALMONELLA TYPHIMURIUM, Strain/Indicator: TA100, Metabolic Activation: BOVINE, URINARY BLADDER, S-9, Method: PREINCUBATION): inactive; negative
- mutagenic call (Test System: AMES SALMONELLA TYPHIMURIUM, Strain/Indicator: TA100, Metabolic Activation: PIG, URINARY BLADDER, S-9, Method: PREINCUBATION): inactive; negative
- mutagenic call (Test System: AMES SALMONELLA TYPHIMURIUM, Strain/Indicator: TA100, Metabolic Activation: RAT, LIVER, MICROSOMES, SODIUM PHENOBARBITONE, Method: PREINCUBATION): inactive; negative
- mutagenic call (Test System: AMES SALMONELLA TYPHIMURIUM, Strain/Indicator: TA100, Metabolic Activation: RAT, LIVER, S-9, AROCLOR, Method: PREINCUBATION): inactive; negative
- mutagenic call [5]: inactive; negative
- mutagenic call (Test System: AMES SALMONELLA TYPHIMURIUM, Strain/Indicator: TA1535, Metabolic Activation: RAT, LIVER, MICROSOMES, SODIUM PHENOBARBITONE, Method: PREINCUBATION): inactive; negative
- mutagenic call (Test System: AMES SALMONELLA TYPHIMURIUM, Strain/Indicator: TA1535, Metabolic Activation: RAT, LIVER, S-9, AROCLOR, Method: PREINCUBATION): inactive; negative
- mutagenic call (Test System: AMES SALMONELLA TYPHIMURIUM, Strain/Indicator: TA1535, Metabolic Activation: RAT, LIVER, S-9, KC500 OR PHENOBARBITAL, Method: LIQUID SUSPENSION): active; positive

SMILES: C=C(C#N)C(=O)OCC(C)C
- mutagenic call [3]: inactive; negative
- mutagenic call [4]: inactive; negative

SMILES: Nc1nc(NO)c2[nH]cnc2n1
- mutagenic call (Test System: AMES SALMONELLA TYPHIMURIUM, Strain/Indicator: HISG46, Metabolic Activation: NONE, Method: STANDARD PLATE): active; positive
- mutagenic call [1]: inactive; negative
- mutagenic call (Test System: AMES SALMONELLA TYPHIMURIUM, Strain/Indicator: TA100(1,8-DNP6), Metabolic Activation: NONE, Method: PREINCUBATION): active; positive
- mutagenic call (Test System: AMES SALMONELLA TYPHIMURIUM, Strain/Indicator: TA100(NR), Metabolic Activation: NONE, Method: PREINCUBATION): active; positive
- mutagenic call [6]: active; positive
- mutagenic call [3]: active; positive
- mutagenic call (Test System: AMES SALMONELLA TYPHIMURIUM, Strain/Indicator: TA100, Metabolic Activation: RAT, LIVER, S-9, KANECHLOR 500, Method: PREINCUBATION): active; positive
- mutagenic call (Test System: AMES SALMONELLA TYPHIMURIUM, Strain/Indicator: TA1950, Metabolic Activation: NONE, Method: STANDARD PLATE): active; positive
- mutagenic call (Test System: CHINESE HAMSTER OVARY, Strain/Indicator: CHO-K1-BH4 (HGPRT), Metabolic Activation: NONE, Method: SUSPENSION): active; positive
- mutagenic call (Test System: E. COLI, Strain/Indicator: CM871, Metabolic Activation: NONE, Method: STANDARD PLATE): active; positive
- mutagenic call (Test System: E. COLI, Strain/Indicator: WP2, Metabolic Activation: NONE, Method: STANDARD PLATE): active; positive
- mutagenic call (Test System: E. COLI, Strain/Indicator: WP2S, Metabolic Activation: NONE, Method: STANDARD PLATE): active; positive
- mutagenic call (Test System: E. COLI, Strain/Indicator: WP2 UVRA, Metabolic Activation: NONE, Method: STANDARD PLATE): active; positive
- mutagenic call (Test System: MOUSE LYMPHOMA, Strain/Indicator: L5178Y (TK+/TK-)/6-THIOGUANINE, Metabolic Activation: NONE, Method: SUSPENSION): active; positive
- mutagenic call (Test System: MOUSE LYMPHOMA, Strain/Indicator: L5178Y (TK+/TK-)/6-THIOGUANINE, Metabolic Activation: NONE, Method: SUSPENSION IN TRAYS): active; positive
- mutagenic call (Test System: MOUSE LYMPHOMA, Strain/Indicator: L5178Y (TK+/TK-)/OUABAIN, Metabolic Activation: NONE, Method: SUSPENSION): active; positive
- mutagenic call (Test System: MOUSE LYMPHOMA, Strain/Indicator: L5178Y (TK+/TK-)/OUABAIN, Metabolic Activation: NONE, Method: SUSPENSION IN TRAYS): active; positive
- mutagenic call (Test System: MOUSE LYMPHOMA, Strain/Indicator: L5178Y (TK+/TK-)/TRIFLUOROTHYMIDINE, Metabolic Activation: NONE, Method: SUSPENSION): active; positive
- mutagenic call (Test System: MOUSE LYMPHOMA, Strain/Indicator: L5178Y (TK+/TK-)/TRIFLUOROTHYMIDINE, Metabolic Activation: NONE, Method: SUSPENSION IN TRAYS): active; positive
- mutagenic call (Test System: MOUSE LYMPHOMA, Strain/Indicator: L5178Y (TK+/TK-), Metabolic Activation: NONE, Method: SUSPENSION/PLATE): active; positive

SMILES: Nc1ccc2nc3ccccc3nc2c1
- mutagenic call [7]: inactive; negative
- mutagenic call (Test System: AMES SALMONELLA TYPHIMURIUM, Strain/Indicator: TA98, Metabolic Activation: RAT, LIVER, S-9, PCB, Method: PREINCUBATION): active; positive

SMILES: CC(C)CN(N)CC(C)C
- mutagenic call [3]: active; positive
- mutagenic call [4]: active; positive
- mutagenic call (Test System: AMES SALMONELLA TYPHIMURIUM, Strain/Indicator: TA102, Metabolic Activation: NONE, Method: STANDARD PLATE): inactive; negative
- mutagenic call (Test System: AMES SALMONELLA TYPHIMURIUM, Strain/Indicator: TA102, Metabolic Activation: RAT, LIVER, S-9, AROCLOR 1254, Method: STANDARD PLATE): inactive; negative

SMILES: C=CC(=O)OCC(Br)CBr (stereo not given)
- mutagenic call (Test System: AMES SALMONELLA TYPHIMURIUM, Strain/Indicator: TA98, Metabolic Activation: HAMSTER, LIVER, S-9, AROCLOR 1254 (10%), Method: PREINCUBATION): active; positive
- mutagenic call [7]: inactive; negative
- mutagenic call (Test System: AMES SALMONELLA TYPHIMURIUM, Strain/Indicator: TA98, Metabolic Activation: RAT, LIVER, S-9, AROCLOR 1254 (10%), Method: PREINCUBATION): inactive; negative
- mutagenic call (Test System: AMES SALMONELLA TYPHIMURIUM, Strain/Indicator: TA100, Metabolic Activation: HAMSTER, LIVER, S-9, AROCLOR 1254 (10%), Method: PREINCUBATION): active; positive
- mutagenic call [6]: inactive; negative
- mutagenic call (Test System: AMES SALMONELLA TYPHIMURIUM, Strain/Indicator: TA100, Metabolic Activation: RAT, LIVER, S-9, AROCLOR 1254 (10%), Method: PREINCUBATION): active; positive
- mutagenic call (Test System: AMES SALMONELLA TYPHIMURIUM, Strain/Indicator: TA1535, Metabolic Activation: HAMSTER, LIVER, S-9, AROCLOR 1254 (10%), Method: PREINCUBATION): active; positive
- mutagenic call [5]: active; positive
- mutagenic call (Test System: AMES SALMONELLA TYPHIMURIUM, Strain/Indicator: TA1535, Metabolic Activation: RAT, LIVER, S-9, AROCLOR 1254 (10%), Method: PREINCUBATION): active; positive
- mutagenic call (Test System: AMES SALMONELLA TYPHIMURIUM, Strain/Indicator: TA1537, Metabolic Activation: HAMSTER, LIVER, S-9, AROCLOR 1254 (10%), Method: PREINCUBATION): inactive; negative
- mutagenic call (Test System: AMES SALMONELLA TYPHIMURIUM, Strain/Indicator: TA1537, Metabolic Activation: NONE, Method: PREINCUBATION): inactive; negative
- mutagenic call (Test System: AMES SALMONELLA TYPHIMURIUM, Strain/Indicator: TA1537, Metabolic Activation: RAT, LIVER, S-9, AROCLOR 1254 (10%), Method: PREINCUBATION): inactive; negative
